BindingDB's records for patent US20250019381 (Cardurion Pharmaceuticals, 2025)

Biological target: Dual specificity calcium/calmodulin-dependent 3',5'-cyclic nucleotide phosphodiesterase 1A (Human, UniProt P54750)
Experiment: Enzyme immunoassay

Sequence of Dual specificity calcium/calmodulin-dependent 3',5'-cyclic nucleotide phosphodiesterase 1A (P54750 whole entry): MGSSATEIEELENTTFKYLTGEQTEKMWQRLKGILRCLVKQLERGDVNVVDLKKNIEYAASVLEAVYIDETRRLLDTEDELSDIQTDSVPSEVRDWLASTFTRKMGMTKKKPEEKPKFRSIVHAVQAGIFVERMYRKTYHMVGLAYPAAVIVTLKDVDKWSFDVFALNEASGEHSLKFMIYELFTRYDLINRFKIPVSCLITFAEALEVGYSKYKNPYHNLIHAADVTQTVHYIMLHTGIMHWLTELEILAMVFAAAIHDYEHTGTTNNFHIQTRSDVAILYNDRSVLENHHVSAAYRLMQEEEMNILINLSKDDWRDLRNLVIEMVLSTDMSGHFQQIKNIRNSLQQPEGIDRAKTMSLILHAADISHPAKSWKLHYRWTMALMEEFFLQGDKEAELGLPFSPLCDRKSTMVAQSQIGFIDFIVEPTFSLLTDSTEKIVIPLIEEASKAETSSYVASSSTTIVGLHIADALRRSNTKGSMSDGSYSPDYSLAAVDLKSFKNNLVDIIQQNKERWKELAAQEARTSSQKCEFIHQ

IC50: 5.28 µM
Compound: O=c1[nH]c(CN2CC(Oc3cccnc3)C2)cn2c(C3CCOCC3)ncc12 [US20250019381, Compound (P2)]
